Source: patent US20040248887A1, “Inhibitors of cathepsin S” (IRM LLC, priority 2003, published 2004)

Target: Cathepsin S (Homo sapiens, UniProt P25774)
Test: Cathepsin S inhibition, fluorogenic peptide substrate kinetic assay
Type: biochemical
Settings: Table II; Cathepsin S inhibition constant, pH5.5; read-out: Ki Cat. S
Outline: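 Reactions were started with 50 μM (final) acetyl-His-Pro-Val-Lys-aminocarbamoylcoumarin, and hydrolysis was followed by fluorescence (ex 380/em 450 nm). Apparent inhibition constants from enzyme progress curves were converted to Ki for competitive inhibitors using substrate concentration and Km.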

Chain of Cathepsin S (P25774 115-331, species assumed): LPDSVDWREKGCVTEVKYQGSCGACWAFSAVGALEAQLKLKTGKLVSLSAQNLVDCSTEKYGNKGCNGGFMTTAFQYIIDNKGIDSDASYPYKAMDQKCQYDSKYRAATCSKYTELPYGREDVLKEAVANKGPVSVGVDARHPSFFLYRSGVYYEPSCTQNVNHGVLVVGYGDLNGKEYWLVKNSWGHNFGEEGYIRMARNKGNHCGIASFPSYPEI

Row | Ki | Compound
1 | < 1000 nM | O=C(NCCN1CCc2cc(F)ccc21)[C@H](CC1CCCCC1)NS(=O)(=O)c1cccs1 [Compound 235, (S)-3-Cyclohexyl-N-[2-(5-fluoro-2,3-dihydro-indol-1-yl)-ethyl]-2-(thiophene-2-sulfonylamino)-propionamide]
2 | < 100 nM | Cc1cccc(C(=O)N[C@@H](CC(C)C)C(=O)N[C@@H](CCC(=O)O)CN2CCc3cc(F)ccc32)c1 [Compound 43, (S,S)-5-(5-Fluoro-2,3-dihydro-indol-1-yl)-4-[4-methyl-2-(3-methyl-benzoylamino)-pentanoylamino]-pentanoic acid]
3 | < 1000 nM | O=C(NC(C(=O)NC(CO)CN1CCc2cc(F)ccc21)c1ccc(Cl)cc1Cl)c1ccco1 [Compound 212, N-(S)-((3-(5-fluoroindolin-1-yl)-1-hydroxypropan-2-(R)-ylcarbamoyl)(2,4-dichlorophenyl)methyl) furan-2-carboxamide]
4 | < 100 nM | Cc1cc(C(=O)N[C@@H](CC2CCCCC2)C(=O)NCCN2CCc3cc(F)ccc32)c(C(F)(F)F)o1 [Compound 78, 5-Methyl-2-trifluoromethyl-furan-3-carboxylic acid (S)-{2-cyclohexyl-1-[2-(5-fluoro-2,3-dihydro-indol-1-yl)-ethylcarbamoyl]-ethyl}-amide]
5 | < 100 nM | C[C@@H](CNc1ccc(OC(F)F)cc1)NC(=O)[C@H](CC1CCCCC1)NC(=O)c1ccc(-c2ccc(F)cc2)o1 [Compound 104, 5-(4-Fluoro-phenyl)-furan-2-carboxylic acid {2-cyclohexyl-1-(S)-[2-(4-difluoromethoxy-phenylamino)-1-(S)-methyl-ethylcarbamoyl]-ethyl}-amide]
6 | < 10000 nM | COc1cccc(C(=O)N[C@@H](CCC2CCCCC2)C(=O)NCCN2CCc3ccc(F)cc32)c1 [Compound 10, (S)-N-{3-Cyclohexyl-1-[2-(6-fluoro-2,3-dihydro-indol-1-yl)-ethylcarbamoyl]-propyl}-3-methoxy-benzamide]
7 | < 100 nM | COc1cccc(C(=O)NC(C(=O)N[C@@H](COCc2ccccc2)CN2CCc3cc(F)ccc32)c2ccccc2)c1 (mixture of isomers) [Compound 36, N-(S)-{[1-(R)-Benzyloxymethyl-2-(5-fluoro-2,3-dihydro-indol-1-yl)-ethylcarbamoyl]-phenyl-methyl}-3-methoxy-benzamide]
8 | < 1000 nM | O=C(NCCN1CCc2cc(F)ccc21)[C@H](CC1CCCCC1)NS(=O)(=O)c1cc2ccccc2s1 [Compound 234, (S)-2-(Benzo[b]thiophene-2-sulfonylamino)-3-cyclohexyl-N-[2-(5-fluoro-2,3-dihydro-indol-1-yl)-ethyl]-propionamide]
9 | < 100 nM | CC[C@@H](C(=O)N[C@@H](CC1CCCCC1)C(=O)NCCN1CCc2cc(F)ccc21)c1ccccc1 [Compound 148, N-{2-cyclohexyl-1-(S)-[2-(5-fluoro-2,3-dihydro-indol-1-yl)-ethylcarbamoyl]-ethyl}-2-(R)-phenyl-butyramide]
10 | < 1000 nM | C[C@@H](CNc1cc(Cl)ccc1F)NC(=O)[C@H](CC1CCCCC1)NC(=O)c1ccc(-c2cccc(F)c2)o1 [Compound 97, 5-(3-Fluoro-phenyl)-furan-2-carboxylic acid {1-(S)-[2-(5-chloro-2-fluoro-phenylamino)-1-(S)-methyl-ethylcarbamoyl]-2-cyclohexyl-ethyl}-amide]
11 | < 100 nM | C[C@@H](CNc1ccccc1S(C)(=O)=O)NC(=O)[C@H](CC1CCCCC1)NC(=O)c1ccc(-c2cccc(F)c2)o1 [Compound 116, 5-(3-Fluoro-phenyl)-furan-2-carboxylic acid {2-cyclohexyl-1-(S)-[2-(2-methanesulfonyl-phenylamino)-1-(S)-methyl-ethylcarbamoyl]-ethyl}-amide]
12 | < 1000 nM | C[C@@H](CNc1ccc(OC(F)(F)F)cc1)NC(=O)[C@H](CC1CCCCC1)NC(=O)O[C@@H]1CCN(C(=O)OC(C)(C)C)C1 [Compound 185, 3-(R)-{2-Cyclohexyl-1-(S)-[1-(S)-methyl-2-(4-trifluoromethoxy-phenylamino)-ethylcarbamoyl]-ethylcarbamoyloxy}-pyrrolidine-1-carboxylic acid tert-butyl ester]
13 | < 100 nM | COc1cccc(C(=O)N[C@@H](CC2CCCCC2)C(=O)N[C@@H](COCc2ccccc2)CN2CCc3cc(F)ccc32)c1 [Compound 149, N-{1-(S)-[1-(R)-Benzyloxymethyl-2-(5-fluoro-2,3-dihydro-indol-1-yl)-ethylcarbamoyl]-2-cyclohexyl-ethyl}-3-methoxy-benzamide]
14 | < 100 nM | C[C@@H](CNc1ccc(OC(F)(F)F)cc1)NC(=O)[C@H](CC1CCCCC1)NC(=O)c1nnc(-c2cccc(F)c2)o1 [Compound 147, 5-(3-Fluoro-phenyl)-[1,3,4]oxadiazole-2-carboxylic acid {2-cyclohexyl-1-(S)-[1-(S)-methyl-2-(4-trifluoromethoxy-phenylamino)-ethylcarbamoyl]-ethyl}-amide]
15 | < 100 nM | C[C@@H](CNc1ccc(OC(F)(F)F)cc1)NC(=O)[C@H](CC1CCCCC1)NC(=O)[C@H]1CCCO1 [Compound 30, Tetrahydrofuran-2-(R)-carboxylic acid {2-cyclohexyl-1-(S)-[1-(S)-methyl-2-(4-trifluoromethoxy-phenylamino)-ethylcarbamoyl]-ethyl}-amide]
16 | < 1000 nM | O=C(NCCN1CCc2cc(F)ccc21)[C@H](CC1CCCCC1)NS(=O)(=O)c1cccc2ccccc12 [Compound 228, (S)-3-Cyclohexyl-N-[2-(5-fluoro-2,3-dihydro-indol-1-yl)-ethyl]-2-(naphthalene-1-sulfonylamino)-propionamide]
17 | < 100 nM | O=C(N[C@@H](CC1CCCCC1)C(=O)NCCN1CCc2cc(F)ccc21)c1ccoc1 [Compound 13, Furan-3-carboxylic acid (S)-{2-cyclohexyl-1-[2-(5-fluoro-2,3-dihydro-indol-1-yl)-ethylcarbamoyl]-ethyl}-amide]
18 | < 1000 nM | O=C(Nc1ccc(-c2ccccc2)cc1)N[C@@H](CC1CCCCC1)C(=O)NCCN1CCc2cc(F)ccc21 [Compound 225, (S)-2-(3-Biphenyl-4-yl-ureido)-3-cyclohexyl-N-[2-(5-fluoro-2,3-dihydro-indol-1-yl)-ethyl]-propionamide]
19 | < 100 nM | COc1ccc(NC[C@H](C)NC(=O)[C@H](CC2CCCCC2)NC(=O)c2ccc(-c3cccc(F)c3)o2)cc1 [Compound 86, 5-(3-Fluoro-phenyl)-furan-2-carboxylic acid {2-cyclohexyl-1-(S)-[2-(4-methoxy-phenylamino)-1-(S)-methyl-ethylcarbamoyl]-ethyl}-amide]
20 | < 100 nM | C[C@@H](CNc1ccccc1Cl)NC(=O)[C@H](CC1CCCCC1)NC(=O)c1ccc(-c2cccc(F)c2)o1 [Compound 113, 5-(3-Fluoro-phenyl)-furan-2-carboxylic acid {1-(S)-[2-(2-chloro-phenylamino)-1-(S)-methyl-ethylcarbamoyl]-2-cyclohexyl-ethyl}-amide]
21 | < 100 nM | O=C(NC(C(=O)N[C@@H](CO)CN1CCc2cc(F)ccc21)c1ccc(Cl)cc1Cl)c1ccc(F)c(F)c1 (mixture of isomers) [Compound 208, N-(R,S)-((3-(5-fluoroindolin-1-yl)-1-hydroxypropan-2-(R)-ylcarbamoyl)(2,4-dichlorophenyl)methyl)-3,4-difluorobenzamide]
22 | < 100 nM | C[C@@H](CNc1ccc(OC(F)(F)F)cc1)NC(=O)[C@H](CC1CCCCC1)NC(=O)c1ccc(-c2ccc[n+]([O-])c2)o1 [Compound 144, 5-(1-Oxy-pyridin-3-yl)-furan-2-carboxylic acid {2-cyclohexyl-1-(S)-[1-(S)-methyl-2-(4-trifluoromethoxy-phenylamino)-ethylcarbamoyl]-ethyl}-amide]
23 | < 100 nM | C[C@@H](CNc1ccc(C(=O)N(C)C)cc1)NC(=O)[C@H](CC1CCCCC1)NC(=O)c1ccc(-c2cccc(F)c2)o1 [Compound 122, 5-(3-Fluoro-phenyl)-furan-2-carboxylic acid {2-cyclohexyl-1-(S)-[2-(4-dimethylcarbamoyl-phenylamino)-1-(S)-methyl-ethylcarbamoyl]-ethyl}-amide]
24 | < 1000 nM | C[C@@H](CNc1cccc(Cl)c1F)NC(=O)[C@H](CC1CCCCC1)NC(=O)c1ccc(-c2cccc(F)c2)o1 [Compound 96, 5-(3-Fluoro-phenyl)-furan-2-carboxylic acid {1-(S)-[2-(3-chloro-2-fluoro-phenylamino)-1-(S)-methyl-ethylcarbamoyl]-2-cyclohexyl-ethyl}-amide]
25 | < 100 nM | C[C@@H](CNc1ccc(S(C)(=O)=O)cc1)NC(=O)[C@H](CC1CCCCC1)NC(=O)c1ccc(-c2cccc(F)c2)o1 [Compound 89, 5-(3-Fluoro-phenyl)-furan-2-carboxylic acid {2-cyclohexyl-1-(S)-[2-(4-methanesulfonyl-phenylamino)-1-(S)-methyl-ethylcarbamoyl]-ethyl}-amide]
26 | < 100 nM | COc1ccc(Oc2ccc(S(=O)(=O)N[C@@H](CC3CCCCC3)C(=O)NCCN3CCc4cc(F)ccc43)cc2)cc1 [Compound 244, (S)-3-Cyclohexyl-N-[2-(5-fluoro-2,3-dihydro-indol-1-yl)-ethyl]-2-[4-(4-methoxy-phenoxy)-benzenesulfonylamino]-propionamide]
27 | < 1000 nM | Cc1cccc(C(=O)N[C@@H](CC(C)C)C(=O)N[C@@H](CCNC(N)=O)CN2CCc3cc(F)ccc32)c1 [Compound 45, (S,S)-N-{1-[1-(5-Fluoro-2,3-dihydro-indol-1-ylmethyl)-3-ureido-propylcarbamoyl]-3-methyl-butyl}-3-methyl-benzamide]
28 | < 100 nM | Cc1occ(C(F)(F)F)c1S(=O)(=O)N[C@@H](CC1CCCCC1)C(=O)N[C@@H](C)CN1CCc2cc(F)ccc21 [Compound 253, (S,S)-3-Cyclohexyl-N-[2-(5-fluoro-2,3-dihydro-indol-1-yl)-1-methyl-ethyl]-2-(2-methyl-4-trifluoromethyl-furan-3-sulfonylamino)-propionamide]

Row | Compound | Ki
29 | (S)-3-Cyclohexyl-N-[2-(5-fluoro-2,3-dihydro-indol-1-yl)-ethyl]-2-(5-methyl-1-phenyl-1H-pyrazole-4-sulfonylamino)-propionamide [Compound 222] | < 1000 nM
